Source: patent US6734187B1, “Purine derivatives and medicaments comprising the same as active ingredient” (Mitsubishi Chemical Corporation, priority 1997, dated 2004)

How the values were obtained:
[1] = molecular target: Type IV Phosphodiesterase (PDE IV); assay: Effect on enzymatic activity of type IV phosphodiesterase (PDE IV); assay type: biochemical; settings: crude enzyme from cytoplasmic fraction of human monocyte-like cell strain U937; 3H-cAMP substrate, 30° C., 15 minutes; read-out: PDE IV Inhibitory Activity: IC50
Description: PDE IV inhibitory activity of the compounds of the present invention was examined. […] Adv.
Effect on Enzymatic Activity of Type IV Phosphodiesterase (PDE IV)
After a test compound was added, the reaction mixture was incubated at 30° C. for 15 minutes, and then added with the substrate.

A melting point of 112 to 123 °C and an IC50 [1] of 0.22 nM were found for `COc1ccc(Cn2c(C)nc3c(C)nc(OCc4cc(C)nn4C)nc32)cc1OC1CCCC1` [compound 112] in this work.
A melting point of 127 to 128 °C and an IC50 [1] of 0.69 nM were found for `CCNc1nc(OCCCc2ccncc2)nc2c1ncn2Cc1ccc(OC)c(OC2CCCC2)c1` [compound 83] in this work.
A melting point of 128 to 130 °C and an IC50 [1] of 4.5 nM were found for `COc1ccc(Cn2cnc3cnc(OCCCc4ccncc4)nc32)cc1OC1CCOC1` (centres unmarked) [compound 55] in this work.
A melting point of 129 to 131 °C and an IC50 [1] of 41 nM were found for `CCNc1nc(Cl)nc2c1ncn2Cc1ccc(OC)c(OC2CCCC2)c1` [compound 134] in this work.
A melting point of 141 to 142 °C and an IC50 [1] of 0.47 nM were found for `COc1ccc(Cn2cnc3cnc(NCc4cccs4)nc32)cc1OC1CCCC1` [compound 41] in this work.
A melting point of 130 to 131 °C and an IC50 [1] of 0.44 nM were found for `CCCNc1nc(OCCCc2ccncc2)nc2c1ncn2Cc1ccc(OC)c(OC2CCCC2)c1` [compound 93] in this work.
A melting point of 78 to 80 °C and an IC50 [1] of 0.82 nM were found for `COc1ccc(Cn2cnc3c(N(C)C)nc(OCCCc4ccncc4)nc32)cc1OC1CCCC1` [compound 82] in this work.
A melting point of 116 to 117 °C and an IC50 [1] of 0.64 nM were found for `COc1ccc(Cn2c(C)nc3c(C)nc(SCc4cccnc4)nc32)cc1OC1CCCC1` [compound 119] in this work.
A melting point of 115 to 117 °C and an IC50 [1] of 1.3 nM were found for `COc1ccc(Cn2c(C)nc3cnc(OCCCc4ccncc4)nc32)cc1OC1CCCC1` [compound 56] in this work.
A melting point of 157 to 158 °C and an IC50 [1] of 15 nM were found for `COc1ccc(Cn2c(C)nc3c(C)nc(OCc4cc[n+]([O-])cc4)nc32)cc1OC1CCCC1` [compound 102] in this work.
An IC50 [1] of 2.6 nM was found for `COc1ccc(Cn2c(C)nc3cnc(OCc4cccnc4)nc32)cc1OC1CCCC1` [compound 36] in this work.
A melting point of 164 to 166 °C and an IC50 [1] of 24 nM were found for `COc1ccc(Cn2c(C)nc3c(C)nc(NCc4cccnn4)nc32)cc1OC1CCCC1` [compound 113] in this work.
A melting point of 112 to 114 °C and an IC50 [1] of 1.1 nM were found for `COc1ccc(Cn2cnc3c(N(C)C)nc(NCc4cccnc4)nc32)cc1OC1CCCC1` [compound 104] in this work.
An IC50 [1] of 8.9 nM was found for `COc1ccc(Cn2cnc3c(OCc4cccnc4)ncnc32)cc1OC1CCCC1` [compound 2] in this work.
A melting point of 85 to 88 °C and an IC50 [1] of 15 nM were found for `CCNc1nc(OCCCc2cc[n+]([O-])cc2)nc2c1ncn2Cc1ccc(OC)c(OC2CCCC2)c1` [compound 122] in this work.
A melting point of 125 to 126 °C and an IC50 [1] of 1.7 nM were found for `COc1ccc(Cn2c(C)nc3c(C)nc(OCc4ccncc4)nc32)cc1OC1CCCC1` [compound 95] in this work.
A melting point of 138 to 140 °C and an IC50 [1] of 0.75 nM were found for `CNc1nc(OCCCc2ccncc2)nc2c1ncn2Cc1ccc(OC)c(OC2CCCC2)c1` [compound 72] in this work.
An IC50 [1] of 1 nM was found for `COc1ccc(Cn2c(C)nc3cnc(NCc4cccnc4)nc32)cc1OC1CCCC1` [compound 37] in this work.
A melting point of 143 to 145 °C and an IC50 [1] of 64 nM were found for `COc1ccc(Cn2cnc3ncnc(OCc4cccnc4)c32)cc1OC1CCCC1` [compound 137] in this work.
A melting point of 152 to 153 °C and an IC50 [1] of 1.4 nM were found for `COc1ccc(Cn2cnc3c(N)nc(OCCCc4ccncc4)nc32)cc1OC1CCCC1` [compound 66] in this work.
A melting point of 92 to 93 °C and an IC50 [1] of 0.2 nM were found for `COc1ccc(Cn2cnc3c(N(C)C)nc(OCc4ccoc4)nc32)cc1OC1CCCC1` [compound 88] in this work.
A melting point of 125 to 127 °C and an IC50 [1] of 0.83 nM were found for `COc1ccc(Cn2c(C)nc3cnc(NCc4ccc(OCC(F)(F)F)nc4)nc32)cc1OC1CCCC1` [compound 77] in this work.
A melting point of 121 to 122 °C and an IC50 [1] of 3.8 nM were found for `CCNc1nc(OCc2cccnn2)nc2c1ncn2Cc1ccc(OC)c(OC2CCCC2)c1` [compound 96, 9-[(3-cyclopentyloxy-4-methoxy)benzyl]-6-ethylamino-2-[(3-pyridazinyl)methyloxy]purine] in this work.
A melting point of 134 to 135 °C and an IC50 [1] of 54 nM were found for `COc1ccc(Cn2cnc3ncnc(Oc4cccnc4)c32)cc1OC1CCCC1` [compound 139] in this work.
A melting point of 137 to 138 °C and an IC50 [1] of 1.9 nM were found for `COc1ccc(Cn2cnc3c(C)nc(NCc4ccncc4)nc32)cc1OC1CCCC1` [compound 84] in this work.
